Measured values as given in patent publication US11046699B2, “Pyrazolo-pyrimidin-amino-cycloalkyl compounds and their therapeutic uses” (RAPT THERAPEUTICS, INC., priority 2018, dated 2021).
Counter-ions that a name gives are not always drawn. Like-named read-outs stand apart in the source and are kept apart here.

Biological target: GCN2 (Homo sapiens, UniProt Q9P2K8)
Experiment: GCN2 enzymatic endpoint assay: phosphorylation of GFP-eIF2α measured by TR-FRET (Lanthascreen)
Type: biochemical
Outline: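 Read-out is the TR-FRET ratio of acceptor signal at 520 nm to terbium donor at 495 nm, rising with antibody binding to phosphorylated GFP-eIF2α. Endpoint format: 2 μM ATP, 80 nM substrate, 90 minutes at room temperature, EDTA stop.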

[1] = tested as described in Example 77, compound and/or hydrochloride, dihydrochloride or trifluoroacetic acid salt, read-out: IC 50 Activity
[2] = GCN2 biochemical IC50, 4 nM GCN2, 2 μM ATP, 80 nM GFP-eIF2α, 90 min RT, read-out: GCN2 activity

GCN2, sequence (Q9P2K8 whole entry): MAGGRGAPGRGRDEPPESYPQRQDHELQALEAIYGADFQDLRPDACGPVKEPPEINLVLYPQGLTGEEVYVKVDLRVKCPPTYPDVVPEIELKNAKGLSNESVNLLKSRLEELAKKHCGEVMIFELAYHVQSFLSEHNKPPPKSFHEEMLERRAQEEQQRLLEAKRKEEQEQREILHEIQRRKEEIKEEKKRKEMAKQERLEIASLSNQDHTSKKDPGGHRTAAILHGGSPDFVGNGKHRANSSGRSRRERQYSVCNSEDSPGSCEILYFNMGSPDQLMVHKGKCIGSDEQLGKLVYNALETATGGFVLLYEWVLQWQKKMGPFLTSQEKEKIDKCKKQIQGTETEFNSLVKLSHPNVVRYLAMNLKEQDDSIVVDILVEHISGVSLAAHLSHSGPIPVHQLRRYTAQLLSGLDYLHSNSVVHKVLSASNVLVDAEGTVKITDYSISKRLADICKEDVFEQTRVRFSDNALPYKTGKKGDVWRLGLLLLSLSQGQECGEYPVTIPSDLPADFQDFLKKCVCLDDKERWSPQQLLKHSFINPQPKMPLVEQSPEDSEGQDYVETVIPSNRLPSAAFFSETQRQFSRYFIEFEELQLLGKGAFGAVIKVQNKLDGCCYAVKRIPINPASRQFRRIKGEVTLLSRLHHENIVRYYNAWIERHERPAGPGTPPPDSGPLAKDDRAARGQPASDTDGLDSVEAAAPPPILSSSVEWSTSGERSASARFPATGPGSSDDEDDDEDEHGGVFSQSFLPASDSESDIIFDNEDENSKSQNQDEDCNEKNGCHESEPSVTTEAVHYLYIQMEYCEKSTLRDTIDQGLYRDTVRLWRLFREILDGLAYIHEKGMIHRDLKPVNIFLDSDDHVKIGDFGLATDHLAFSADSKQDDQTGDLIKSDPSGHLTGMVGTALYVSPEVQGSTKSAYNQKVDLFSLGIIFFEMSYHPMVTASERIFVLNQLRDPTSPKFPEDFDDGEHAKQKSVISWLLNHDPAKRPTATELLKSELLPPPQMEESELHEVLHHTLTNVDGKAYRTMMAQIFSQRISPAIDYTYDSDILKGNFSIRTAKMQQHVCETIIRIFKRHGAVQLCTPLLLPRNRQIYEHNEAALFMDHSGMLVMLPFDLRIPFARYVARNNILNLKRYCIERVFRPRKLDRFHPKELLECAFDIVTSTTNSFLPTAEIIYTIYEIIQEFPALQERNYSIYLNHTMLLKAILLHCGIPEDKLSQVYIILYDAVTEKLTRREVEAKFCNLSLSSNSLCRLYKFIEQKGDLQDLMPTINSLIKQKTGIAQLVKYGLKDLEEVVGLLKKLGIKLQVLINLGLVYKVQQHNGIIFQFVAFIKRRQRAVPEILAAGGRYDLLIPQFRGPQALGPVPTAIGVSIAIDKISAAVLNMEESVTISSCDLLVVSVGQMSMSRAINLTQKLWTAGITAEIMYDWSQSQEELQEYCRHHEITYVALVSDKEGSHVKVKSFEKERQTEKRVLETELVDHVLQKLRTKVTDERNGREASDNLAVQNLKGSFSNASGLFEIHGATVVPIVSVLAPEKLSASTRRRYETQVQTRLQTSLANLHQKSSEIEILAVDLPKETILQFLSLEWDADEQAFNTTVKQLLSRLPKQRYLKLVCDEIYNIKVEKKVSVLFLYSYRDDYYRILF

Structure (SMILES) | IC50 [1] [nM] | IC50 [2] [nM]
CNS(=O)(=O)C1CC[C@@H](Nc2ncc3c(Br)nn(-c4ccc(-c5nnc(C)s5)c(C#N)c4)c3n2)C1 (stereo partly drawn) [(3R)-3-[[3-bromo-1-[3-cyano-4-(5-methyl-1,3,4-thiadiazol-2-yl)phenyl]pyrazolo[3,4-d]pyrimidin-6-yl]amino]-N-methyl-cyclopentanesulfonamide] | 25 to 200 | –
CNC(=O)[C@]1(CCC#N)CC[C@@H](Nc2ncc3c(Br)nn(-c4cc(F)c5ncccc5c4)c3n2)C1 [Example 43, (1S,3R)-3-((3-bromo-1-(8-fluoroquinolin-6-yl)-1H-pyrazolo[3,4-d]pyrimidin-6-yl)amino)-1-(2-cyanoethyl)-N-methylcyclopentane-1-carboxamide hydrochloride] | – | < 25
CNC(=O)[C@]1(C)CCC(Nc2ncc3c(Br)nn(-c4cc(F)cc(C5COC5)c4)c3n2)C1 (stereo partly drawn) [(1R)-3-[[3-bromo-1-[3-fluoro-5-(oxetan-3-yl)phenyl]pyrazolo[3,4-d]pyrimidin-6-yl]amino]-N,1-dimethyl-cyclopentane-carboxamide] | 25 to 200 | –
O=C([C@@H]1CC[C@@H](Nc2ncc3c(Br)nn(-c4ccc5ncccc5c4)c3n2)C1)N1CCC2(CCCCO2)C1 (stereo partly drawn) [((1R,3R)-3-((3-bromo-1-(quinolin-6-yl)-1H-pyrazolo[3,4-d]pyrimidin-6-yl)amino)cyclopentyl)(6-oxa-2-azaspiro[4.5]decan-2-yl)methanone] | 200 to 500 | –
CNC(=O)[C@]1(C)CC[C@@H](Nc2ncc3c(Br)nn(-c4cc(CC5(N)CC5)c5ncccc5c4)c3n2)C1 [(1R,3R)-3-[[1-[8-[(1-aminocyclopropyl)methyl]-6-quinolyl]-3-bromo-pyrazolo [3,4-d]pyrimidin-6-yl]amino]-N,1-dimethyl-cyclopentanecarboxamide] | 25 to 200 | –
CNC(=O)[C@]1(C)CC[C@@H](Nc2ncc3c(Br)nn(-c4ccc(-c5nnc(C(=O)N6CCNCC6)s5)cc4)c3n2)C1 [(1R,3R)-3-[[3-bromo-1-[4-[5-(piperazine-1-carbonyl)-1,3,4-thiadiazol-2-yl]phenyl]pyrazolo[3,4-d]pyrimidin-6-yl]amino]-N,1-dimethyl-cyclopentanecarboxamide] | 25 to 200 | –
CNC(=O)[C@]1(CC#N)CC[C@@H](Nc2ncc3c(Br)nn(-c4cc(F)c5ncccc5c4)c3n2)C1 [Example 40, (1R,3R)-3-((3-bromo-1-(8-fluoroquinolin-6-yl)-1H-pyrazolo[3,4-d]pyrimidin-6-yl)amino)-1-(cyanomethyl)-N-methylcyclopentane-1-carboxamide hydrochloride] | – | < 25
CNC(=O)[C@]1(C)CC[C@@H](Nc2ncc3c(Br)nn(-c4ccc5ncn(C)c(=O)c5c4)c3n2)C1 [Example 72, (1R,3R)-3-((3-bromo-1-(3-methyl-4-oxo-3,4-dihydroquinazolin-6-yl)-1H-pyrazolo[3,4-d]pyrimidin-6-yl)amino)-N,1-dimethylcyclopentane-1-carboxamide] | – | 25 to 200
CNC(=O)[C@]1(C)CC[C@@H](Nc2ncc3c(Br)nn(-c4cc(CN5CCNCC5=O)c5ncccc5c4)c3n2)C1 [(1R,3R)-3-[[3-bromo-1-[8-[(2-oxopiperazin-1-yl)methyl]-6-quinolyl]pyrazolo[3,4-d]pyrimidin-6-yl]amino]-N,1-dimethyl-cyclopentanecarboxamide] | 25 to 200 | –
CNC(=O)[C@]1(O)CC[C@@H](Nc2ncc3c(Br)nn(-c4cc(F)c5ncccc5c4)c3n2)C1 [(1S,3R)-3-[[3-bromo-1-(8-fluoro-6-quinolyl)pyrazolo[3,4-d]pyrimidin-6-yl]amino]-1-hydroxy-N-methyl-cyclopentanecarboxamide] | 25 to 200 | –
CNC(=O)[C@]1(C)CC[C@@H](Nc2ncc3c(Br)nn(-c4cc(Cl)cc(C(=O)NC5CNC5)c4)c3n2)C1 [N-(azetidin-3-yl)-3-[3-bromo-6-[[(1R,3R)-3-methyl-3-(methylcarbamoyl)cyclopentyl]amino]pyrazolo[3,4-d]pyrimidin-1-yl]-5-chloro-benzamide] | 25 to 200 | –
CNC(=O)[C@]1(C)CCC(Nc2ncc3c(Br)nn(-c4ccc5nn(CCN)cc5c4)c3n2)C1 (stereo partly drawn) [(1R)-3-[[1-[2-(2-aminoethyl)indazol-5-yl]-3-bromo-pyrazolo[3,4-d]pyrimidin-6-yl]amino]-N,1-dimethyl-cyclopentane-carboxamide] | 25 to 200 | –
CNC(=O)[C@]1(C)CC[C@@H](Nc2ncc3c(Br)nn(-c4ccc5c(c4)CN(C(=O)CO)CC5)c3n2)C1 [(1R,3R)-3-[[3-bromo-1-[2-(2-hydroxyacetyl)-3,4-dihydro-1H-isoquinolin-7-yl]pyrazolo [3,4-d]pyrimidin-6-yl]amino]-N,1-dimethyl-cyclopentanecarboxamide] | 25 to 200 | –
CNC(=O)[C@]1(C)CC[C@@H](Nc2ncc3c(Br)nn(-c4ccc5c(c4)CCNC5=O)c3n2)C1 [(1R,3R)-3-[[3-bromo-1-(1-oxo-3,4-dihydro-2H-isoquinolin-6-yl)pyrazolo[3,4-d]pyrimidin-6-yl]amino]-N,1-dimethyl-cyclopentanecarboxamide] | 25 to 200 | –
CNC(=O)[C@]1(C)CC[C@@H](Nc2ncc3c(Br)nn(-c4ccc(-c5ncco5)c(CNS(C)(=O)=O)c4)c3n2)C1 [(1R,3R)-3-[[3-bromo-1-[3-(methane-sulfonamidomethyl)-4-oxazol-2-yl-phenyl]pyrazolo[3,4-d]pyrimidin-6-yl]amino]-N,1-dimethyl-cyclopentanecarboxamide] | 25 to 200 | –
COCCC(=O)N[C@H]1C[C@H](Nc2ncc3c(Br)nn(-c4ccc5ncccc5c4)c3n2)C1 [Example 3, N-((1r,3r)-3-((3-bromo-1-(quinolin-6-yl)-1H-pyrazolo[3,4-d]pyrimidin-6-yl)amino)cyclobutyl)-3-methoxypropanamide] | – | 500 to 1000

Structure (SMILES) | IC50 [1] [nM] | IC50 [2] [nM]
CNC(=O)[C@]1(CC(F)F)CC[C@@H](Nc2ncc3c(Br)nn(-c4ccc5nccnc5c4)c3n2)C1 [Example 51, (1R,3R)-3-((3-bromo-1-(quinoxalin-6-yl)-1H-pyrazolo[3,4-d]pyrimidin-6-yl)amino)-1-(2,2-difluoroethyl)-N-methylcyclopentane-1-carboxamide; 2,2,2-trifluoroacetic acid] | – | 25 to 200
CNC(=O)[C@]1(C)CC[C@@H](Nc2ncc3c(Br)nn(-c4cc(Cl)cc([C@@H]5COC(=O)N5)c4)c3n2)C1 [(1R,3R)-3-[[3-bromo-1-[3-chloro-5-[(4R)-2-oxooxazolidin-4-yl]phenyl]pyrazolo[3,4-d]pyrimidin-6-yl]amino]-N,1-dimethyl-cyclopentanecarboxamide] | < 25 | –
Cc1nnc(-c2ccc(-n3nc(Br)c4cnc(N[C@@H]5CC[C@@](C)(N)C5)nc43)cc2)s1 | 25 to 200 | –
CC1N(C)C(=O)CN1C(=O)[C@@H]1CC[C@@H](Nc2ncc3c(Br)nn(-c4cc(F)c5ncccc5c4)c3n2)C1 (mixture of isomers) | < 25 | –
C[C@@H]1CN(C(=O)[C@@H]2CC[C@@H](Nc3ncc4c(Br)nn(-c5ccc6ncccc6c5)c4n3)C2)CCO1 [((1R,3R)-3-((3-bromo-1-(quinolin-6-yl)-1H-pyrazolo[3,4-d]pyrimidin-6-yl)amino)cyclo-pentyl)((R)-2-methylmorpholino)methanone] | 25 to 200 | –
Cc1nnc(-c2ccc(-n3nc(Br)c4cnc(N[C@@H]5CCC6(CC(=O)N(C)C6=O)C5)nc43)cc2)s1 (some centres unmarked) | < 25 | –
CNC(=O)[C@]1(C)CC[C@@H](Nc2ncc3c(Br)nn(-c4cc(OC)c5c(c4)OCC(=O)N5C)c3n2)C1 [(1R,3R)-3-[[3-bromo-1-(5-methoxy-4-methyl-3-oxo-1,4-benzoxazin-7-yl)pyrazolo[3,4-d]pyrimidin-6-yl]amino]-N,1-dimethyl-cyclopentanecarboxamide] | < 25 | –
COCCO[C@H]1C[C@H](Nc2ncc3c(Br)nn(-c4ccc5ncccc5c4)c3n2)C1 [Example 4, 3-bromo-N-((1r,3r)-3-(2-methoxyethoxy)cyclobutyl)-1-(quinolin-6-yl)-1H-pyrazolo[3,4-d]pyrimidin-6-amine] | – | 25 to 200
Cc1nnc(-c2ccc(-n3nc(Br)c4cnc(N[C@@H]5CC[C@@](C)(C(=O)N6CCOCC6)C5)nc43)cc2)s1 [[(1R,3R)-3-[[3-bromo-1-[4-(5-methyl-1,3,4-thiadiazol-2-yl)phenyl]pyrazolo[3,4-d]pyrimidin-6-yl]amino]-1-methyl-cyclopentyl]-morpholino-methanone] | 25 to 200 | –
CS(=O)(=O)CCNC(=O)[C@@H]1CC[C@@H](Nc2ncc3c(Br)nn(-c4ccc5ncccc5c4)c3n2)C1 [(1R,3R)-3-((3-bromo-1-(quinolin-6-yl)-1H-pyrazolo[3,4-d]pyrimidin-6-yl)amino)-N-(2-(methylsulfonyl)ethyl)cyclopentane-1-carboxamide] | 200 to 500 | –
CNC(=O)[C@]1(C)CC[C@@H](Nc2ncc3c(Br)nn(-c4ccc(-c5cnccn5)nc4)c3n2)C1 [(1R,3R)-3-[[3-bromo-1-(6-pyrazin-2-yl-3-pyridyl)pyrazolo[3,4-d]pyrimidin-6-yl]amino]-N,1-dimethyl-cyclopentane-carboxamide] | 25 to 200 | –
Cc1nnc(-c2ccc(-n3nc(Br)c4cnc(N[C@@H]5CC[C@@](C)(C#N)C5)nc43)cc2)s1 | 25 to 200 | –
CNC(=O)[C@]1(C)CC[C@@H](Nc2ncc3c(Br)nn(-c4cc(Cl)c(F)c(CC#N)c4)c3n2)C1 | 25 to 200 | –
CNC(=O)[C@]1(C)CC[C@@H](Nc2ncc3c(Br)nn(-c4cc(OCC5(F)CNC5)cc(OC(F)(F)F)c4)c3n2)C1 [(1R,3R)-3-[[3-bromo-1-[3-[(3-fluoroazetidin-3-yl)methoxy]-5-(trifluoromethoxy)phenyl]pyrazolo[3,4-d]pyrimidin-6-yl]amino]-N,1-dimethyl-cyclopentanecarboxamide] | 25 to 200 | –
O=C(N[C@H]1CCOC1)[C@@H]1CC[C@@H](Nc2ncc3c(Br)nn(-c4ccc5ncccc5c4)c3n2)C1 [(1R,3R)-3-((3-bromo-1-(quinolin-6-yl)-1H-pyrazolo[3,4-d]pyrimidin-6-yl)amino)-N-((S)-tetrahydrofuran-3-yl)cyclopentane-1-carboxamide] | 25 to 200 | –
CNC(=O)[C@]1(C)CC[C@@H](Nc2ncc3c(Br)nn(-c4ccc5c(=O)n(C)cnc5c4)c3n2)C1 | 25 to 200 | –
